Results: patent US20220348592A1, “FUSED HETEROCYCLIC DERIVATIVES” (Janssen Sciences Ireland Unlimited Company, priority 2019, published 2022)

How the values were obtained:
HBV [1] = experiment: HBV replication inhibition assay (BDNA assay) in HepG2.2.15 cells; format: cell-based; conditions: Hepatitis B virus, HepG2.2.15, 144 h, 6 days treatment, encapsidated HBV DNA in supernatant, BDNA QuantiGene assay
Method: HBV replication inhibition by the disclosed compounds were determined in cells infected or transfected with HBV or cells with stably integrated HBV, such as HepG2.2.15 cells (Sells et al. 1987). In this example, HepG2.2.15 cells were maintained in cell culture medium containing 10% fetal bovine serum (FBS), Geneticin, L-glutamine, penicillin and streptomycin. HepG2.2.15 cells were seeded in 96-well plates at a density of 40,000 cells/well and were treated with serially diluted compounds at a final DMSO concentration of 0.5% either alone or in combination by adding drugs in a checker box format. Cells were incubated with compounds for three days, after which medium was removed and fresh medium containing compounds was added to cells and incubated for another three days. At day 6, supernatant was removed and treated with DNase at 37° C. for 60 minutes, followed by enzyme inactivation at 75° C. for 15 minutes. […] HBV DNA was denatured by addition of 0.2 M NaOH and detected using a branched DNA (BDNA) QuantiGene assay kit according to manufacturer recommendation (Affymetrix). HBV DNA levels were also quantified using qPCR, based on amplification of encapsidated HBV DNA extraction with QuickExtraction Solution (Epicentre Biotechnologies) and amplification of HBV DNA using HBV specific PCR probes that can hybridize to HBV DNA and a fluorescently labeled probe for quantitation. In addition, cell viability of HepG2.2.15 cells incubated with test compounds alone or in combination was determined by using CellTitre-Glo reagent according to the manufacturer protocol (Promega). The mean background signal from wells containing only culture medium was subtracted from all other samples, and percent inhibition at each compound concentration was calculated by normalizing to signals from HepG2.2.15 cells treated with 0.5% DMSO using equation E1. […]
where DMSOave is the mean signal calculated from the wells that were treated with DMSO control (0% inhibition control) and Xi is the signal measured from the individual wells. […]

HBV [2] = experiment: Anti-HBV activity: intracellular HBV DNA by real-time PCR in HepG2.117 cell line; format: cell-based, Hepatitis B virus; conditions: HepG2.117 cells, 3 days of treatment, intracellular HBV DNA by real-time PCR, mean value, read-out: HBV-AVE-HepG2.117 EC50 (μM, mean value)
How it was run: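 HepG2.117 cells, a Tet-off inducible HBV-producing line, induced to replicate HBV and then treated with serially diluted compound. After 3 days, intracellular HBV DNA quantified by real-time PCR with HBV-specific primers and probe.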

HepG2.117 cells = experiment: Cytotoxicity in HepG2.117 cells, ATPlite Luminescence Assay; format: cell-based, human; conditions: incubated for 3 days, mean value, read-out: TOX-HepG2.117 CC50 (μM, mean value)
Method: (§1) Cytotoxicity of the compounds was tested using HepG2 or HepG2.117 cells, incubated for 3 days in the presence of compounds. The viability of the cells was assessed using the PERKIN ELMER ATPlite Luminescence Assay System.”

[3] = as above; format: cell-based, human; conditions: human, incubated for 3 days, mean value, read-out: TOX-HepG2.117 CC50 (μM, mean value)
Method: as §1

For C[C@@H]1Cc2nn3c(c2CN1C(=O)Nc1ccc(F)c(C#N)c1)C(=O)N(C)C[C@H](c1cc[nH]n1)C3 (relative stereo) [Example 7a], which EC50 (HBV [1]) is on record?
The EC50 was 37 nM.

For C[C@@H]1Cc2nn3c(c2CN1C(=O)Nc1ccc(F)c(C#N)c1)C(=O)N(C)CC(c1cc[nH]n1)C3 (single isomer, unassigned) [Example 9a, (3R,8R*)—N-(3-Cyano-4-fluorophenyl)-3,10-dimethyl-11-oxo-8-(1H-pyrazol-3-yl)-3,4,8,9,10,11-hexahydro-1H-pyrido[4′,3′:3,4]pyrazolo[1,5-a][1,4]diazepine-2(7H)-carboxamide], which EC50 (HBV [1]) is on record?
The EC50 was 260 nM.

For C[C@@H]1Cc2nn3c(c2CN1C(=O)c1ccc(Cl)c(Cl)c1)C(=O)N(C)OC(CF)C3 (stereo in doubt) [Compound 47, (4*R,9R)-10-(3,4-Dichlorobenzoyl)-4-(fluoromethyl)-2,9-dimethyl-4,5,8,9,10,11-hexahydro-pyrido[4′,3′:3,4]pyrazolo[5,1-d][1,2,5]oxadiazepin-1(2H)-one], which EC50 (HBV [2]) is on record?
Its EC50 is 0.249 µM.

And the CC50 (HepG2.117 cells)?
Its CC50 is 3.63 µM.

For CC(C)N1CCn2nc3c(c2C1=O)CN(C(=O)c1ccc(Cl)c(Cl)c1)CC3 [Compound 2, 2-(3,4-Dichlorobenzoyl)-9-(propan-2-yl)-1,2,3,4,8,9-hexahydropyrido[4′,3′:3,4]pyrazolo[1,5-a]-pyrazin-10(7H)-one], which EC50 (HBV [2]; Hepatitis B virus, 72 h) is on record?
Its EC50 is 1.15 µM.

And the CC50 at 3 days [3]?
The CC50 at 3 days was greater than 50 µM.

And the melting point?
Its melting point is 190 °C.

Which results are given for O=C1NCCCn2nc3c(c21)CN(C(=O)c1ccc(Cl)c(Cl)c1)CC3 [Compound 33, 2-(3,4-Dichlorobenzoyl)-1,2,3,4,7,8,9,10-octahydro-11H-pyrido[4′,3′:3,4]pyrazolo[1,5-a][1,4]-diazepin-11-one]?
EC50 (HBV [2]; Hepatitis B virus, 72 h): 9.61 µM; CC50 at 3 days [3]: > 50 µM; melting point: 237 °C

For CN1CC(c2ccn(C)n2)Cn2nc3c(c2C1=O)CN(C(=O)Nc1ccc(F)c(C#N)c1)CC3 (stereo not shown) [Example 5a, N-(3-Cyano-4-fluorophenyl)-10-methyl-8-(1-methyl-1H-pyrazol-3-yl)-11-oxo-3,4,8,9,10,11-hexahydro-1H-pyrido[4′,3′:3,4]pyrazolo[1,5-a][1,4]diazepine-2(7H)-carboxamide], which EC50 (HBV [1]) is on record?
Its EC50 is 160 nM.

Which results are given for CC(c1nnnn1C)N1CCn2nc3c(c2C1=O)CN(C(=O)c1ccc(Cl)c(Cl)c1)[C@H](C)C3 (stereo partly shown) [Example C247]?
EC50 (HBV [2]; Hepatitis B virus, 72 h): > 2.5 µM; CC50 at 3 days [3]: > 50 µM

Which results are given for CC(c1c(F)cccc1F)N1CCn2nc3c(c2C1=O)CN(C(=O)c1ccc(Cl)c(Cl)c1)[C@H](C)C3 (stereo partly shown) [Example C248]?
EC50 (HBV [2]; Hepatitis B virus, 72 h): 0.013 µM; CC50 at 3 days [3]: 25 µM

For CC(c1nncn1C)N1CCn2nc3c(c2C1=O)CN(C(=O)c1ccc(Cl)c(Cl)c1)[C@H](C)C3 (stereo partly shown) [Example C249], which EC50 (HBV [2]; Hepatitis B virus, 72 h) is on record?
The EC50 was greater than 2.5 µM.

And the CC50 at 3 days [3]?
The CC50 at 3 days was greater than 50 µM.

For CC(c1ccncc1)N1CCn2nc3c(c2C1=O)CN(C(=O)c1ccc(Cl)c(Cl)c1)[C@H](C)C3 (stereo partly shown) [Example C250], which EC50 (HBV [2]; Hepatitis B virus, 72 h) is on record?
The EC50 was 0.033 µM.

And the CC50 at 3 days [3]?
The CC50 at 3 days was greater than 12.5 µM.
